Columns and labels:
Type in all cases: cell-based
MB cells = test: Immunofluorescence of mitotic spindles / mitotic catastrophe
Procedure: (§1) DNA is stained with DAPI (blue), whereas spindle is stained with β-tubulin (red) (below).
Immunofluorescence and Western blot analysis Immunofluorescence analyses was carried out on cells fixed in 4% paraformaldehyde (Imam, J. S. et al. PLoS One 7, e52397, (2012)). […]
VCR disrupts the integrity of the mitotic spindle and destabilizes microtubules (George, P., Journey, L. J. & Goldstein, M. N. J Natl Cancer Inst 35, 355-375 (1965)). […] In FIG. 12A, the p-values were calculated using standard Student t-tests. […] The p-values were calculated using standard Student t-tests. […] In FIG. 11F, the p-values were calculated using standard Student t-tests. […] In FIG. 11H, The p-values were calculated using standard Student t-tests. […] Quantitative real-time PCR. […]

3′-UTR of eIF4E3 = test: Dual luciferase 3′-UTR reporter assay (eIF4E3); details: miR-584-5p mimic in comparison with scrambled
Procedure: Dual luciferase assay. Wild-type or mutant 3′-UTR segments of the eIF4E3 and HDAC1 gene were cloned downstream of the luciferase gene in pGL3-promoter vector at the SacI and SpeI restriction sites. HEK293 cells were cotransfected with Renilla luciferase vector (pRLnull 380) and firefly luciferase vector containing pGL3-wt-eIF4E3; pGL3-mut-eIF4E3; or pGL3-wt-HDAC1, pGL3-mut-HDAC1, or pGL3 overnight and incubated in fresh complete medium for an additional 48 hours after transfection. Cells were then transfected with miRNA mimic (Invitrogen) for 24 hours. Next, cells were harvested with 1× passive lysis buffer (Promega) and luciferase activity was read using GLOMAX 20/20 luminometer (Promega).
Data are z-transformed. The cutoff criteria for each gene are fold change >2, sample intensity >10, and p-value <0.05. […] To validate the gene expression analysis and target prediction results, it was determined whether miR-584-5p reduced HDAC1/eIF4E3 expression by binding to their 3′-untranslated regions (3′-UTRs). […] Also shown are the portion of the miR-584-5p sequence (SEQ ID NO: 15; UAUGGUU) that binds to the wild-type 3′UTR and seed sequence mutant (SEQ ID NO: 16; […], top panel; and SEQ ID NO: 17; […]; bottom panel). Also shown is miR-584-5p seed sequence mutated sequences. […] The p-values were calculated using standard Student t-tests. […] The p-values were calculated using standard Student t-tests.

[1] = tested on: TUBB3, TUBB2a, and TUBB2b; test: qPCR analysis of β-tubulin isotypes; details: miR-584-5p-overexpressing cells
Procedure: as §1
VCR disrupts the integrity of the mitotic spindle and destabilizes microtubules (George, P., Journey, L. J. & Goldstein, M. N. J Natl Cancer Inst 35, 355-375 (1965)). Therefore, it was tested whether miR-584-5p and its target genes might affect microtubule dynamics. First, expression of tubulins was deteremined because VCR resistance has been associated with altered expression of tubulin isotypes (Sirotnak, F. M., Danenberg, K. D., Chen, J., Fritz, F. & Danenberg, P. V. Biochem Biophys Res Commun 269, 21-24, (2000)). […] In FIG. 12A, the p-values were calculated using standard Student t-tests. Error bars represent mean±SEM. ****, p<0.0001. […] The p-values were calculated using standard Student t-tests. Error bars represent mean±SEM. To further test how miR-584-5p and its target genes affect spindle integrity, immunofluorescence analysis was performed on miR-584-5p-overexpressing or eIF4E3/HDAC1-silenced MB cells. […] In FIG. 11F, the p-values were calculated using standard Student t-tests. Error bars represent mean±SEM. […] In FIG. 11H, The p-values were calculated using standard Student t-tests. Error bars represent mean±SEM. ****, p<0.0001; ***, p<0.001; **, p<0.01; *, p<0.05. Quantitative real-time PCR. Total RNA was extracted using miRNAeasy kit (Qiagen). […]

Substance: miR-584-5p: microRNA mimic; nucleotide sequence UUAUGGUUUGCCUGGGACUGAG (SEQ ID NO: 1); purchased from Thermofisher (chemistry not given here)
- mitotic catastrophe features (MB cells; miR-584-5p-overexpressing MB cells): many cells with multipolar metaphase/anaphase, spindles with unorganized poles, micronuclei, and aneuploidy
- mitotic spindle defects (MB cells; β-tubulin/DAPI staining): variety of mitotic spindle defects
- luciferase activity, eIF4E3 3′-UTR with mutated miR-584-5p binding sites (3′-UTR of eIF4E3): no change in luciferase activity
- luciferase activity, wild-type eIF4E3 3′-UTR construct (3′-UTR of eIF4E3): significantly reduced
- transcript levels of TUBB3, TUBB2a, and TUBB2b [1]: significantly reduced transcript levels
